Measurements published in PubChem BioAssay AID328 (DTP/NCI, 2004).
Where “and” joins values, the source holds several entries; their conditions need not be identical. Identical values can stand only once. Inconclusive results and toxic doses are left out. The calls were made as follows: active = survival T/C of 150% or more; inactive = T/C below 125% in these data.

Test system: BDF1 mice, P388 leukemia ip, median survival T/C
Test: NCI In Vivo Anticancer Drug Screen. Data for tumor model P388 Leukemia (intraperitoneal) in B6D2F1 (BDF1) mice
Settings: endpoint: median survival time, higher = longer survival
In short: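 Mice carrying the transplantable tumour receive compound or vehicle. Survival is followed in each arm, and the treated measure is divided by the vehicle measure.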

[1] = dose: 100.0 mg/kg/injection, schedule: Q01DX009 (ip), vehicle: saline
[2] = dose: 100.0 mg/kg/injection, schedule: Q04DX003 (ip), vehicle: saline
[3] = dose: 200.0 mg/kg/injection, schedule: Q01DX009 (ip), vehicle: saline
[4] = dose: 200.0 mg/kg/injection, schedule: Q04DX003 (ip), vehicle: saline
[5] = dose: 400.0 mg/kg/injection, schedule: Q01DX009 (ip), vehicle: saline
[6] = dose: 400.0 mg/kg/injection, schedule: Q04DX003 (ip), vehicle: saline
[7] = dose: 100.0 mg/kg/injection, schedule: Q04DX003 (ip), vehicle: Klucel (hydroxypropylcellulose) (HPC)
[8] = dose: 150.0 mg/kg/injection, schedule: Q04DX003 (ip), vehicle: Klucel (hydroxypropylcellulose) (HPC)
[9] = dose: 50.0 mg/kg/injection, schedule: Q01DX009 (ip), vehicle: saline with Tween-80
[10] = dose: 200.0 mg/kg/injection, schedule: Q01DX009 (ip), vehicle: saline with Tween-80
[11] = dose: 50.0 mg/kg/injection, schedule: Q04DX003 (ip), vehicle: Klucel (hydroxypropylcellulose) (HPC)
[12] = dose: 200.0 mg/kg/injection, schedule: Q04DX003 (ip), vehicle: Klucel (hydroxypropylcellulose) (HPC)
[13] = dose: 100.0 mg/kg/injection, schedule: Q01DX009 (ip), vehicle: saline with Tween-80
[14] = dose: 25.0 mg/kg/injection, schedule: Q01DX009 (ip), vehicle: saline with Tween-80
[15] = dose: 6.25 mg/kg/injection, schedule: Q01DX009 (ip), vehicle: Klucel (hydroxypropylcellulose) (HPC)
[16] = dose: 100.0 mg/kg/injection, schedule: Q04DX003 (ip), vehicle: saline with Tween-80
[17] = dose: 200.0 mg/kg/injection, schedule: Q04DX003 (ip), vehicle: saline with Tween-80
[18] = dose: 400.0 mg/kg/injection, schedule: Q04DX003 (ip), vehicle: saline with Tween-80

Measured: T/C

COc1ccc2[nH]c3c(C)c4ccncc4c(C)c3c2c1
active: dose: 9.37 mg/kg/injection, schedule: Q04DX003 (ip), vehicle: water 176 % of control | dose: 18.5 mg/kg/injection, schedule: Q04DX003 (ip), vehicle: water 188 % of control | dose: 18.75 mg/kg/injection, schedule: Q01DX001 (ip), vehicle: water 176 % of control | dose: 37.5 mg/kg/injection, schedule: Q01DX001 (ip), vehicle: water 164 % of control | dose: 37.5 mg/kg/injection, schedule: Q04DX003 (ip), vehicle: other 158 % of control | dose: 75.0 mg/kg/injection, schedule: Q01DX001 (ip), vehicle: water 200 % of control
inactive: dose: 4.68 mg/kg/injection, schedule: Q01DX009 (ip), vehicle: water 117 % of control | dose: 9.37 mg/kg/injection, schedule: Q01DX009 (ip), vehicle: water 88 % of control | dose: 18.5 mg/kg/injection, schedule: Q01DX009 (ip), vehicle: other 87 % of control | dose: 18.75 mg/kg/injection, schedule: Q01DX001 (ip), vehicle: other 112 % of control | dose: 18.75 mg/kg/injection, schedule: Q01DX009 (ip), vehicle: water 94 % of control | dose: 37.5 mg/kg/injection, schedule: Q01DX001 (ip), vehicle: other 116 % of control | dose: 75.0 mg/kg/injection, schedule: Q04DX003 (ip), vehicle: other 95 % of control

CCCCNC=O
inactive: dose: 25.0 mg/kg/injection, schedule: Q01DX009 (ip), vehicle: saline 91 % of control | dose: 50.0 mg/kg/injection, schedule: Q01DX009 (ip), vehicle: saline 100 % of control | dose: 100.0 mg/kg/injection, schedule: Q01DX001 (ip), vehicle: saline 100 % of control | [1] 100 % of control and 104 % of control | [2] 95 % of control | dose: 200.0 mg/kg/injection, schedule: Q01DX001 (ip), vehicle: saline 100 % of control | [3] 104 % of control | [4] 95 % of control | dose: 400.0 mg/kg/injection, schedule: Q01DX001 (ip), vehicle: saline 100 % of control | [5] 104 % of control | [6] 104 % of control

CCCCC(C#N)(C(=O)OCC)C(C)(C)C (centres undefined)
inactive: [1] 109 % of control | [3] 118 % of control | [5] 90 % of control

Nc1c(C(=O)O)ccc2c1C(=O)c1ccccc1C2=O
inactive: dose: 44.0 mg/kg/injection, schedule: Q04DX003 (ip), vehicle: gum acacia 87 % of control | dose: 50.0 mg/kg/injection, schedule: Q01DX009 (ip), vehicle: gum acacia 92 % of control | dose: 67.0 mg/kg/injection, schedule: Q04DX003 (ip), vehicle: Klucel (hydroxypropylcellulose) (HPC) 115 % of control | dose: 67.0 mg/kg/injection, schedule: Q04DX003 (ip), vehicle: gum acacia 100 % of control | dose: 100.0 mg/kg/injection, schedule: Q01DX009 (ip), vehicle: gum acacia 103 % of control | [7] 120 % of control | dose: 100.0 mg/kg/injection, schedule: Q04DX003 (ip), vehicle: gum acacia 87 % of control | [8] 110 % of control | dose: 150.0 mg/kg/injection, schedule: Q04DX003 (ip), vehicle: gum acacia 116 % of control

COC(=O)C1=C(\N2CCOCC2)CCCCC/C=C\1C(=O)OC
inactive: [9] 100 % of control | [10] 100 % of control

CCN(CCNc1ccc(CO)c2sc3ccccc3c(=O)c12)CC(C)(C)O
inactive: [11] 102 % of control | [7] 100 % of control | [12] 106 % of control

CNC(C)(C)CO
inactive: [1] 105 % of control | [2] 104 % of control | [3] 115 % of control | [4] 95 % of control | [6] 95 % of control

O=C(Nc1ccc(Cl)c(Cl)c1)ON1CCCCC1
inactive: [9] 100 % of control | [13] 100 % of control | [10] 106 % of control

CC(C)(C)OC(=O)NN=C1CCC(C(C)(C)C)CC1 (centres undefined)
inactive: dose: 83.75 mg/kg/injection, schedule: Q01DX001 (ip), vehicle: Klucel (hydroxypropylcellulose) (HPC) 95 % of control | [13] 109 % of control | [8] 100 % of control | dose: 167.5 mg/kg/injection, schedule: Q01DX001 (ip), vehicle: Klucel (hydroxypropylcellulose) (HPC) 100 % of control | dose: 225.0 mg/kg/injection, schedule: Q04DX003 (ip), vehicle: Klucel (hydroxypropylcellulose) (HPC) 100 % of control | dose: 335.0 mg/kg/injection, schedule: Q01DX001 (ip), vehicle: Klucel (hydroxypropylcellulose) (HPC) 95 % of control | dose: 335.0 mg/kg/injection, schedule: Q04DX003 (ip), vehicle: Klucel (hydroxypropylcellulose) (HPC) 90 % of control

CCCNC(=O)/C=C\S(=O)CCC (centres undefined)
inactive: [14] 100 % of control | [9] 98 % of control | [13] 112 % of control

CCCCCCCCCCCCN1C(=O)[N+](C)(C)N=C1[O-]
inactive: [14] 90 % of control | [9] 90 % of control | [13] 92 % of control

C/C(CC(C)(C)c1ccccc1)=N/NC(N)=O
inactive: dose: 50.0 mg/kg/injection, schedule: Q04DX003 (ip), vehicle: saline sonified 90 % of control | dose: 100.0 mg/kg/injection, schedule: Q04DX003 (ip), vehicle: saline sonified 100 % of control | dose: 200.0 mg/kg/injection, schedule: Q04DX003 (ip), vehicle: saline sonified 95 % of control

CNc1ccc2c(c1)C(=O)c1c(C)n(C)c3cccc-2c13
inactive: dose: 12.5 mg/kg/injection, schedule: Q01DX005 (ip), vehicle: saline with Tween-80 98 % of control | dose: 25.0 mg/kg/injection, schedule: Q01DX005 (ip), vehicle: saline with Tween-80 98 % of control

CC1(C)CC2C(=O)c3ccccc3NC2c2ccccc21 (centres undefined)
inactive: dose: 100.0 mg/kg/injection, schedule: Q01DX009 (ip), vehicle: Klucel (hydroxypropylcellulose) (HPC) 87 % of control | [7] 112 % of control | dose: 200.0 mg/kg/injection, schedule: Q01DX009 (ip), vehicle: Klucel (hydroxypropylcellulose) (HPC) 108 % of control | [12] 104 % of control | dose: 400.0 mg/kg/injection, schedule: Q04DX003 (ip), vehicle: Klucel (hydroxypropylcellulose) (HPC) 108 % of control

CCn1cnc2c(=S)nc(N)[nH]c21
inactive: dose: 3.12 mg/kg/injection, schedule: Q01DX009 (ip), vehicle: Klucel (hydroxypropylcellulose) (HPC) 100 % of control | [15] 118 % of control | dose: 12.5 mg/kg/injection, schedule: Q01DX009 (ip), vehicle: Klucel (hydroxypropylcellulose) (HPC) 90 % of control | dose: 25.0 mg/kg/injection, schedule: Q04DX003 (ip), vehicle: Klucel (hydroxypropylcellulose) (HPC) 100 % of control | [11] 100 % of control | [7] 104 % of control

CCOC(=O)C(=Cc1c[nH]c2ccccc12)C(=O)OCC
inactive: dose: 45.0 mg/kg/injection, schedule: Q04DX003 (ip), vehicle: saline with Tween-80 109 % of control | dose: 65.0 mg/kg/injection, schedule: Q04DX003 (ip), vehicle: saline with Tween-80 113 % of control | [16] 100 % of control and 105 % of control | dose: 150.0 mg/kg/injection, schedule: Q04DX003 (ip), vehicle: saline with Tween-80 109 % of control | [17] 100 % of control and 118 % of control | [18] 90 % of control and 109 % of control

CC1=Cc2ccc(C)cc2C(=O)C1=O
inactive: dose: 3.13 mg/kg/injection, schedule: Q01DX009 (ip), vehicle: Klucel (hydroxypropylcellulose) (HPC) 102 % of control | [15] 108 % of control

CN1CCC/C(=C(/N)c2ccccc2)S1(=O)=O
inactive: [9] 104 % of control | [13] 100 % of control | [10] 104 % of control

COC(=O)C(C#N)Cc1ccccc1Cl (centres undefined)
inactive: dose: 50.0 mg/kg/injection, schedule: Q04DX003 (ip), vehicle: saline with Tween-80 101 % of control | [16] 98 % of control | [17] 98 % of control | [18] 97 % of control

COC(=O)c1ccc2oc(=O)cc(C)c2c1O
inactive: [16] 104 % of control | [17] 100 % of control | [18] 95 % of control

CC(=O)CC(OC(=O)c1cc([N+](=O)[O-])cc([N+](=O)[O-])c1)(C(F)(F)F)C(F)(F)F
inactive: dose: 6.25 mg/kg/injection, schedule: Q01DX009 (ip), vehicle: saline with Tween-80 100 % of control | dose: 12.5 mg/kg/injection, schedule: Q01DX009 (ip), vehicle: saline with Tween-80 118 % of control | [14] 118 % of control
